Measurements as given in patent US12643861B2, “Crystalline form of fluvatinib or fluvatinib methanesulfonate and preparation method therefor” (CHONGQING PHARMACEUTICAL RESEARCH INSTITUTE CO., LTD, priority 2020, dated 2026).
Counter-ions that a name gives are not always drawn. Like-named read-outs stand apart in the source and are kept apart here.

Assays:
Type in all cases: physicochemical
[1] = Crystal transformation of fluvatinib mesylate crystalline forms stirred in ethanol, XRPD
Method: The crystalline form of the fluvatinib methanesulfonate was investigated on its stability in ethanol, to see whether there is crystal transformation.
About 0.15 g of the crystalline forms II (Form II), III (Form III), VI (Form VI) and VII (Form VII) of the fluvatinib mesylate were weighed and respectively added to reaction flasks containing ethanol, stirred magnetically for 2 days at room temperature, and filtered. The filter cakes were dried at 40-50° C. with spinning under reduced pressure. The obtained dried samples were detected by XRPD.

[2] = Hydrothermal stability of the crystalline forms of fluvatinib mesylate, XRPD; conditions: Table 11
Method: The crystalline forms I, III, IV, V, VI, and VII of fluvatinib mesylate of the present disclosure were placed in harsh environments to investigate their stability. They were placed under high temperature and high humidity conditions: 25° C. 92.5% R.H for 7 days, 40° C. 75% R.H for 14 days, and 60° C. for 14 days, and then detected by XRPD.

[3] = Stability of crystalline form III of fluvatinib mesylate in air (oxygen gas), oxidation; conditions: exposed to air
Excerpt: To investigate the stability of the crystalline form III of fluvatinib mesylate (Form III), Form III was exposed to air and contacted with oxygen.

[4] = High temperature suspension experiment (50° C.) in organic solvents, XRPD; conditions: 25 mg, 24 hours
Method: The crystalline form III of fluvatinib mesylate was subjected to high temperature suspension experiments (50° C.), to investigate whether the crystalline form III of fluvatinib mesylate undergoes crystal transformation in various type of common organic solvents, and whether it is stable. The crystalline form III of fluvatinib mesylate was suspended in 12 types of organic solvents (in 1 mL of solvent) and water as set forth in Table 10 at a temperature of 50° C. and an amount of about 25 mg for 24 hours. The solids after being suspended in the organic solvents were detected by XRPD.

[5] = Dynamic vapor sorption (DVS) hygroscopicity
Method: At the same time, the crystalline form I of fluvatinib mesylate was tested for dynamic hygroscopicity by DVS to detect water content. […] This indicates again that the crystalline form I of fluvatinib mesylate has good stability.
The crystalline form III of fluvatinib mesylate was tested for hygroscopicity under humidity conditions of 25° C., 0-90% RH, using a dynamic moisture tester a dynamic vapor sorption (DVS) analyzer.

[6] = Stability under high temperature and high humidity for half of a month or 3 months
[7] = Solubility compared with lenvatinib; conditions: method or value not given
[8] = Crystalline form stability on tableting and storage of tablets, XRPD; conditions: for crystal transformation during the process of preparing tablets: direct compression tablets, 30% crystalline form; for crystal transformation after the tablets being placed for 6 months: 40° C., 75% RH
Method: The formula amounts of the crystalline form of fluvatinib mesylate, anhydrous lactose and direct compression starch were mixed, and then mixed with magnesium stearate. The mixture was prepared into tablets by direct compression method, with each table weighed 200 mg.
The crystalline forms before and after being prepared into tablets and after the tablets being placed in 40° C., 75% RH environment for 6 months were detected by XRPD. The results are shown in FIGS. 19 and 20, wherein A, B, and C represent XRPD patterns of the crystalline form before and after being prepared into tablets and after the tablets being placed for 6 months.

[9] = Crystal transformation test of crystalline form I of fluvatinib stirred in solvents, XRPD; conditions: 40° C.
Method: The crystalline form I of fluvatinib was placed in an organic solvent and a water-containing organic solvent, and stirred at 40° C. for 2 days to investigate whether there was a crystal transformation.
A number parts of about 30 mg of the crystalline form I of fluvatinib (Form I) were respectively weighed and added to different glass bottles, and added with an appropriate amount of a single organic solvent or a mixture containing water (see Table 8) to form suspensions. The above-mentioned suspension samples were placed on magnetic stirrers (40° C.) to perform a stirring test. After being stirring at 40° C. for 2 days, the suspension samples were filtered. The filter cake samples were then dried overnight in a vacuum dry box (40° C.), and the dried samples were detected by XRPD (see Table 8 and FIG. 14).

[10] = Stability of crystalline form I of fluvatinib mesylate stirred in acetone, ethanol, ethyl acetate, XRPD; conditions: acetone or ethyl acetate, stirred 10 h at room temperature
Method: The crystalline form I of fluvatinib mesylate was stored in acetone, ethanol and ethyl acetate to investigate whether there was a crystal transformation.
3 parts of about 50 mg the crystalline form I of fluvatinib mesylate were weighed and respectively added to reaction flasks containing an appropriate amount of acetone, ethanol, or ethyl acetate solvent. The suspension samples were placed on magnetic stirrers, stirred for 10 h at room temperature, and filtered. The filter cake was dried at 40-50° C. with spinning under reduced pressure. The obtained dry samples were detected by XRPD.

[11] = ethanol, stirred 2 days at room temperature
[12] = stirred in ethanol for 2-4 days
[13] = listed as crystalline forms of fluvatinib

Q: With `COc1cc2nccc(Oc3ccc(NC(=O)NC4CC4)c(Cl)c3F)c2cc1C(N)=O` [crystalline form VI of fluvatinib mesylate] [fluvatinib methanesulfonate] as the compound, how does the “crystal transformation in ethanol” value [1, 11] read?
A: Its value is “converted to Form III”.

Q: And the “crystal transformation in ethanol” value [1, 12]?
A: Its value is “transformed into the crystalline form III”.

Q: And the “crystal transformation under high temperature and high humidity conditions” value [2]?
A: The value was “undergone crystal transformation”.

Q: For `COc1cc2nccc(Oc3ccc(NC(=O)NC4CC4)c(Cl)c3F)c2cc1C(N)=O` [crystalline form VII of fluvatinib mesylate] [fluvatinib methanesulfonate], which “crystal transformation in ethanol” value [1, 11] is on record?
A: The value was “converted to Form III”.

Q: And the “crystal transformation in ethanol” value [1, 12]?
A: Its value is “transformed into the crystalline form III”.

Q: And the “crystal transformation under high temperature and high humidity conditions” value [2]?
A: Its value is “undergone crystal transformation”.

Q: What does the source list for `COc1cc2nccc(Oc3ccc(NC(=O)NC4CC4)c(Cl)c3F)c2cc1C(N)=O` [crystalline form III of fluvatinib mesylate] [fluvatinib methanesulfonate]?
A: Stability data in oxygen gas, oxidation ([3]; 20-30° C., 0 hour): 93.66%; Stability data in oxygen gas, oxidation ([3]; 20-30° C., 24 hours): 94.10%; Stability data in oxygen gas, oxidation ([3]; 60° C., 0 hour): 93.61%; Stability data in oxygen gas, oxidation ([3]; 60° C., 24 hours): 94.00%; XRD results ([4]; 1.4-dioxane 1 mL): Form III; XRD results ([4]; acetone 1 mL): Form III; XRD results ([4]; acetonitrile 1 mL): Form III; XRD results ([4]; cyclohexane 1 mL): Form III; XRD results ([4]; dichloromethane 1 mL): Form III; XRD results ([4]; ethanol 1 mL): Form III; XRD results ([4]; ethyl acetate 1 mL): Form III; XRD results ([4]; isopropanol 1 mL): Form III; XRD results ([4]; n-heptane 1 mL): Form III; XRD results ([4]; n-hexane 1 mL): Form III; XRD results ([4]; tetrahydrofuran 1 mL): Form III; hygroscopic weight ([5]; 25° C., 0-90% RH): 0.44%; change of content of related impurities / related substances [6]: no apparent change; crystal transformation [6]: did not show crystal transformation; crystal transformation in ethanol [1, 11]: did not undergo crystal transformation; crystal transformation in ethanol [1, 12]: did not undergo crystal transformation; solubility [7]: better than that of lenvatinib; crystal transformation under high temperature and high humidity conditions [2]: did not undergo crystal transformation; crystal transformation during the process of preparing tablets [8]: neither the crystalline form I of fluvatinib mesylate nor the crystalline form III of fluvatinib mesylate undergoes crystal transformation; crystal transformation after the tablets being placed for 6 months [8]: no crystal transformation occurred

Q: Which “change of content of related impurities / related substances” value [6, 13] does the source give for `COc1cc2nccc(Oc3ccc(NC(=O)NC4CC4)c(Cl)c3F)c2cc1C(N)=O` [crystalline form I of fluvatinib, 4-(2-fluoro-3-chloro-(cyclopropylaminocarbonyl)aminophenoxy)-7-methoxy-6-quinolinecarboxamide] here?
A: Its value is “no change”.

Q: What about the crystal transformation [6, 13] of the same compound?
A: Its crystal transformation is “no occurrence of crystal transformation”.

Q: And the “crystalline form after stirring for 2 days” value (from here on “crystalline form”) ([9]; THF 0.4 mL)?
A: The value was “Form I”.

Q: And the “crystalline form” value ([9]; THF-water (1:1) 0.4 mL)?
A: Its value is “Form I”.

Q: And the “crystalline form” value ([9]; acetone 0.4 mL)?
A: Its value is “Form I”.

Q: What about the “crystalline form” value ([9]; acetone-water (1:2) 0.4 mL) of the same compound?
A: Its value is “Form I”.

Q: And the “crystalline form” value ([9]; ethanol 0.4 mL)?
A: The value was “Form I”.

Q: What about the “crystalline form” value ([9]; ethanol-water (3:1) 0.4 mL) of the same compound?
A: The value was “Form I”.

Q: And the “crystalline form” value ([9]; ethyl acetate 0.4 mL)?
A: The value was “Form I”.

Q: What about the “crystalline form” value ([9]; isopropanol 0.4 mL) of the same compound?
A: Its value is “Form I”.

Q: And the “crystalline form” value ([9]; isopropanol-water (1:1) 0.4 mL)?
A: Its value is “Form I”.

Q: And the “crystalline form” value ([9]; methanol 0.4 mL)?
A: The value was “Form I”.

Q: What about the “crystalline form” value ([9]; methanol-water (3:1) 0.4 mL) of the same compound?
A: The value was “Form I”.

Q: With `COc1cc2nccc(Oc3ccc(NC(=O)NC4CC4)c(Cl)c3F)c2cc1C(N)=O` [crystalline form V of fluvatinib mesylate] [fluvatinib methanesulfonate] as the compound, how does the “crystal transformation under high temperature and high humidity conditions” value [2] read?
A: The value was “undergone crystal transformation”.

Q: Which “crystal transformation in ethanol” value [1, 11] does the source give for `COc1cc2nccc(Oc3ccc(NC(=O)NC4CC4)c(Cl)c3F)c2cc1C(N)=O` [crystalline form II of fluvatinib mesylate] [fluvatinib methanesulfonate] here?
A: The value was “converted to Form III”.

Q: What about the “crystal transformation in ethanol” value [1, 12] of the same compound?
A: The value was “transformed into the crystalline form III”.

Q: For `COc1cc2nccc(Oc3ccc(NC(=O)NC4CC4)c(Cl)c3F)c2cc1C(N)=O` [crystalline form I of fluvatinib mesylate] [fluvatinib methanesulfonate], which hygroscopic weight gain ([5]; 25° C./80% RH) is on record?
A: Its hygroscopic weight gain is 1.3%.

Q: And the “crystal transformation after DVS measurements” value ([5]; XRPD before and after DVS)?
A: Its value is “did not undergo crystal transformation”.

Q: What about the “change of content of related impurities / related substances” value [6] of the same compound?
A: Its value is “no apparent change”.

Q: And the crystal transformation [6]?
A: Its crystal transformation is “did not show crystal transformation”.

Q: What about the “crystal transformation in single solvent” value [10] of the same compound?
A: The value was “maintained its form”.

Q: And the “crystal transformation under high temperature and high humidity conditions” value [2]?
A: The value was “did not undergo crystal transformation”.

Q: And the “crystal transformation during the process of preparing tablets” value [8]?
A: Its value is “neither the crystalline form I of fluvatinib mesylate nor the crystalline form III of fluvatinib mesylate undergoes crystal transformation”.

Q: What about the “crystal transformation after the tablets being placed for 6 months” value [8] of the same compound?
A: Its value is “no crystal transformation occurred”.
